“And” between values parts separate entries of the source, which are not always exact repeats. Identical values can stand only once.
Tests used:
NCI-H1975-HGF = assay: Efficacy study in xenograft model established with engineered cell line NCI-H1975-HGF in immunodeficient mice; type: in vivo, B-NDG mice; conditions: for NCI-H1975 HGF tumor volume (mm^3): mean ± standard error; for TGI (%) / ΔT/ΔC (%): Day 15 vs vehicle
Protocol: The efficacy of the test drugs in a xenograft model established with the engineered cell line NCI-H1975-HGF in immunodeficient mice was verified.
Table 1. Cell information
B-NDG mice, female, age: 8 weeks, weight: 18-22 g, purchased from Biocytogen.
• Vehicle: 20% solutol/80% 100 mM sodium acetate buffer pH 5.5; • ASK-MET: hydrochloride of the compound of Formula (II), prepared with 20% solutol/80% 100 mM sodium acetate buffer pH 5.5, concentration: 0.2 mg/mL; • ASK-EGFR: compound of Formula (I), prepared with 0.5% sodium carboxymethyl cellulose solution (0.5%CMC-Na), concentration: 2 mg/mL. • Solutol: polyethylene glycol-15 hydroxystearate; • 100 mM sodium acetate buffer pH 5.5; • 20% solutol/80% 100 mM sodium acetate buffer pH 5.5 means that the volume ratio of solutol to 100 mM sodium acetate buffer pH 5.5 in the drug solution was 20:80, the same below.
1) NCI-H1975-HGF was resuscitated and cultured in vitro to obtain 1.5*10^7 cells. 2) 15 8-10-week-old immunodeficient mice were adaptively raised for 1 week, and weighed. Table 2. Inoculation information
4) After inoculation, the tumor volume and weight were measured twice a week. When the average tumor volume reached about 100 mm^3, the animals were randomly divided into 4 groups according to the tumor volume and weight, each group having 3 animals. The animals were immediately administered after grouping. The day of administration was regarded as day 0. Table 3. Grouping and administration information
After inoculation and before grouping, when the tumor was visible, the tumor volume of the test animals was measured once a week. After grouping, the tumor volume of animals in the experiment was measured twice a week. The tumor volume was measured by a two-way measurement method. The major and minor diameter of the tumor were measured by vernier caliper, and then the tumor volume was calculated by the formula TV = 1/2 × a × b^2, where a is the major diameter of the tumor and b is the minor diameter of the tumor.
At the end of the experiment, the following analysis methods were used for data analysis (Table 4). Table 4. Data analysis methods
For an experiment having two groups, T-Test analysis method is used; and for comparison of three or more groups, One-Way ANOVA method is used for analysis. For the potential synergistic effect, Two-Way ANOVA is used. There is a significant difference when p value is less than 0.05.

[1] = tested on: LD1-0025-200662 human lung cancer tissue; assay: Efficacy study in patient derived xenograft (PDX) tumor model established with LD1-0025-200662 human lung cancer tissue; type: in vivo, NU/NU mice; conditions: for Complete tumor regression (%): rate of mice, observed by naked eyes on day 21; for T/C% Day 21: relative tumor proliferation rate; for T/C (%) (tumor weight): tumor weight vs vehicle
Protocol: NU/NU mice were subcutaneously inoculated with human lung cancer tissue LD1-0025-200662 to establish an in-vivo xenograft tumor model, and then the efficacy of the test drugs ASK-MET alone, ASK-EGFR alone, ASK-MET+ASK-EGFR in combination and RefT+ ASK-EGFR in combination in the model were evaluated.
LD1-0025-200662 (see Table 8), a patient derived human lung cancer tissue, was sub-cultured to FP3+3 passages for this efficacy test. Table 8. Xenograft tumor model
NU/NU mice, female, age: 42-62 days, weight: 18-22 g, purchased from Zhejiang Vital River Laboratory Animal Technology Co., Ltd. (Production license: SCXK(Zhe)2019-0001).
• Vehicle: 20% solutol/80% 100 mM sodium acetate buffer pH 5.5; • ASK-MET: hydrochloride of the compound of Formula (II), prepared with 20% solutol/80% 100 mM sodium acetate buffer pH 5.5, concentration: 0.1 mg/mL, 0.3 mg/mL; • ASK-EGFR: compound of Formula (I), prepared with 0.5% sodium carboxymethyl cellulose solution (0.5%CMC-Na), concentration: 2 mg/mL; • RefT: prepared with 20% solutol/80% 100 mM sodium acetate buffer pH 5.5, concentration: 0.3 mg/mL; RefT is a small-molecule MET kinase inhibitor approved by USFDA.
Immunodeficient mice were subcutaneously inoculated with LD1-0025-200662 tumor tissue, and observed continuously till tumor formation. When the tumor volume reached about 1000 mm^3, the tumor tissue was peeled off and cut into tumor tissue with a size of about 3 mm × 3 mm × 3 mm (about 50-90 mg), and inoculated subcutaneously in NU/NU mice. The inoculated mice were observed and the growth of tumor was monitored. When the average tumor volume of tumor-bearing mice reached 193.40 mm^3, the mice were randomly divided into groups, administered and observed. The tumor volume and weight of all tumor-bearing mice were measured before grouping, and the tumor-bearing mice were randomly grouped according to the measured tumor volume. According to the principle of random block design, the mice were first divided into blocks according to the tumor volume, and then the mice in each block were randomly assigned to each treatment group. Table 9. Administration and treatment
5.1 Measurement of tumor volume and weight of tumor-bearing mice: The measurement was made twice a week by using a vernier caliper, and the tumor volume was calculated by a formula V = 0.5 × a × b^2, where a and b were respectively the major and minor diameters of the tumor.
5.2 Tumor growth inhibition TGI (%)= [1-(Ti-T0) / (Vi-V0)] × 100, where Ti-T0>0; TGI (%) = [1-(Ti-T0)/ T0] × 100, where Ti-T0<0. T0 was the average tumor volume at the first administration in the treatment group, Ti was the average tumor volume at a certain measurement after administration in the treatment group, V0 was the average tumor volume at the first administration in the vehicle control group, and Vi was the average tumor volume at a certain measurement after administration in the vehicle control group.
5.3 Relative tumor proliferation rate T/C (%): The calculation formula is as follows: T/C % = TRTV / CRTV × 100 % (TRTV: RTV of the treatment group; CRTV: RTV of the negative control group). According to the results of tumor measurement, the relative tumor volume (RTV) was calculated by a formula RTV = Vt / V0, where V0 was the average tumor volume measured at the time of grouping for administration (that is, d0), Vt was the average tumor volume measured at a certain measurement, and TRTV and CRTV data of the same day was used.
5.4 Synergistic effect in combined treatment group: Jin's formula Q=E(a+b)/[Ea+Eb-Ea × Eb], where Ea was TGI of a drug alone, and Q value>1 reflected that drug combination has a synergistic effect.
5.5 After the experiment, the tumor was stripped, weighed and photographed. T/Cweight%= Tweight /Vweight × 100%, where Tweight was the average tumor weight of the compound group at the end of the experiment, and Vweight was the average tumor weight of the vehicle control group at the end of the experiment.
All data is expressed as Mean±SEM. […]

[2] = ASK-EGFR 20 mg/kg p.o. QD×15 (G4)
[3] = ASK-EGFR 20 mg/kg p.o. QD×21 (G2)
[4] = Day 21, ASK-EGFR 20 mg/kg p.o. QD×21 (G2)
[5] = ASK-MET 2 mg/kg p.o. QD×15 (G2)
[6] = ASK-MET 1 mg/kg p.o. QD×(D0-D7) (G3)
[7] = ASK-MET 3 mg/kg p.o. QD×(D0-D7) (G4)
[8] = Day 21, ASK-MET 1 mg/kg p.o. QD×(D0-D7) (G3)
[9] = Day 21, ASK-MET 3 mg/kg p.o. QD×(D0-D7) (G4)

Structure (SMILES): C=CC(=O)Nc1cc(Nc2ncc(Cl)c(Nc3ccc4ccccc4c3)n2)c(OC)cc1N(C)CCN(C)C [ASK-EGFR, N-((5-((5-chloro-4-((naphthalen-2-yl)amino))pyrimidin-2-yl)amino)-2-((N-methyl-N-dimethylaminoethyl)amino)-4-methoxyphenyl) acrylamide]
- NCI-H1975 HGF tumor volume (mm^3) (NCI-H1975-HGF; Day 0, ASK-EGFR 20 mg/kg p.o. QD×15 (G4)): 94.47 ±9.54 mm^3
- NCI-H1975 HGF tumor volume (mm^3) (NCI-H1975-HGF; Day 2, ASK-EGFR 20 mg/kg p.o. QD×15 (G4)): 154.47 ±24.23 mm^3
- NCI-H1975 HGF tumor volume (mm^3) (NCI-H1975-HGF; Day 5, ASK-EGFR 20 mg/kg p.o. QD×15 (G4)): 201.41 ±24.69 mm^3
- NCI-H1975 HGF tumor volume (mm^3) (NCI-H1975-HGF; Day 8, ASK-EGFR 20 mg/kg p.o. QD×15 (G4)): 357.90 ±31.91 mm^3
- NCI-H1975 HGF tumor volume (mm^3) (NCI-H1975-HGF; Day 12, ASK-EGFR 20 mg/kg p.o. QD×15 (G4)): 440.56 ±16.92 mm^3
- NCI-H1975 HGF tumor volume (mm^3) (NCI-H1975-HGF; Day 15, ASK-EGFR 20 mg/kg p.o. QD×15 (G4)): 589.86±36.92 mm^3
- TGI (%) (NCI-H1975-HGF; [2]): 58.01%
- ΔT/ΔC (%) (NCI-H1975-HGF; [2]): 41.99%
- Tumor volume (mm^3) (Mean ± SEM) Day 0 [1, 3]: 169.31±14.43 mm^3
- Tumor volume (mm^3) (Mean ± SEM) Day 21 [1, 4]: 1239.58±146.6 mm^3
- Tumor weight (g) (Mean ± SEM) Day 21 after treatment [1, 4]: 1.19 ± 0.16 g
- TGI% Day 21 ([1]; Day 21 vs vehicle, ASK-EGFR 20 mg/kg p.o. QD×21 (G2)): 1.96%
- Complete tumor regression (%) [1, 3]: 0.00% and 0 (0/8) %
- T/C% Day 21 [1, 4]: 98.77%
- T/C (%) (tumor weight) [1, 4]: 93.41%

Structure (SMILES): CC(C)(O)CN1CCC(COc2cnc(-c3cccc(Cn4c(=O)ccn5c6cc(C#N)ccc6nc45)c3)nc2)CC1 [ASK-MET]
- NCI-H1975 HGF tumor volume (mm^3) (NCI-H1975-HGF; Day 0, ASK-MET 2 mg/kg p.o. QD×15 (G2)): 96.28 ±7.10 mm^3
- NCI-H1975 HGF tumor volume (mm^3) (NCI-H1975-HGF; Day 2, ASK-MET 2 mg/kg p.o. QD×15 (G2)): 147.46 ±23.06 mm^3
- NCI-H1975 HGF tumor volume (mm^3) (NCI-H1975-HGF; Day 5, ASK-MET 2 mg/kg p.o. QD×15 (G2)): 274.61 ±85.69 mm^3
- NCI-H1975 HGF tumor volume (mm^3) (NCI-H1975-HGF; Day 8, ASK-MET 2 mg/kg p.o. QD×15 (G2)): 434.60 ±55.60 mm^3
- NCI-H1975 HGF tumor volume (mm^3) (NCI-H1975-HGF; Day 12, ASK-MET 2 mg/kg p.o. QD×15 (G2)): 658.86 ±111.99 mm^3
- NCI-H1975 HGF tumor volume (mm^3) (NCI-H1975-HGF; Day 15, ASK-MET 2 mg/kg p.o. QD×15 (G2)): 940.03±159.86 mm^3
- TGI (%) (NCI-H1975-HGF; [5]): 28.48%
- ΔT/ΔC (%) (NCI-H1975-HGF; [5]): 71.52%
- complete tumor regression of tumor-bearing mice (in words) ([1]; ASK-MET 1 mg/kg (G3)): varying degrees of complete tumor regression
- inhibition on the growth of subcutaneous xenograft tumor ([1]; ASK-MET 1 mg/kg (G3)): statistically significant inhibition
- complete tumor regression of tumor-bearing mice (in words) ([1]; ASK-MET 3 mg/kg (G4)): varying degrees of complete tumor regression
- inhibition on the growth of subcutaneous xenograft tumor ([1]; ASK-MET 3 mg/kg (G4)): statistically significant inhibition
- Tumor volume (mm^3) (Mean ± SEM) Day 0 [1, 6]: 168.78±15.38 mm^3
- Tumor volume (mm^3) (Mean ± SEM) Day 0 [1, 7]: 170.65±12.40 mm^3
- Tumor volume (mm^3) (Mean ± SEM) Day 21 [1, 8]: 116.01±35.11 mm^3
- Tumor weight (g) (Mean ± SEM) Day 21 after treatment [1, 8]: 0.12 ± 0.04 g
- TGI% Day 21 ([1]; Day 21, ASK-MET 1 mg/kg p.o. QD×(D0-D7) (G3), above 100 = regression by formula of b100): 131.27%
- Tumor volume (mm^3) (Mean ± SEM) Day 21 [1, 9]: 3.54±2.35 mm^3
- Tumor weight (g) (Mean ± SEM) Day 21 after treatment [1, 9]: 0.01 ± 0.00 g
- TGI% Day 21 ([1]; Day 21, ASK-MET 3 mg/kg p.o. QD×(D0-D7) (G4), above 100 = regression by formula of b100): 197.93%
- Complete tumor regression (%) [1, 6]: 12.5% and 12.5 (1/8) %
- Complete tumor regression (%) [1, 7]: 75% and 75 (6/8) %
- T/C% Day 21 [1, 8]: 9.27%
- T/C% Day 21 [1, 9]: 0.28%
- T/C (%) (tumor weight) [1, 8]: 9.18%
- T/C (%) (tumor weight) [1, 9]: 0.39%

— patent publication EP4740947A1, “PHARMACEUTICAL COMBINATION OF EGFR KINASE INHIBITOR AND C-MET KINASE INHIBITOR FOR TREATING TUMOR DISEASES” (Jiangsu AoSaiKang Pharmaceutical Co., Ltd., priority 2023, dated 2025)
